This is an account of results in US12163953B2, “P-phenylene ethynylene compounds as bioactive and detection agents” (STC.UNM, priority 2014, dated 2024).

Data set [1] can be described thus: Absorbance/fluorescence spectroscopy and fluorescence quantum yield (comparative method) of PEs and PE/substrate aggregates. It is filed as physicochemical.
The target of data set [2] is T1, HEWL amyloids (Gallus gallus, UniProt P00698).
T1 construct: Lyophilized HEWL was dissolved at 10 mg/mL in 10 mM pH 3 sodium citrate buffer with 0.1 M NaCl; purchased Sigma-Aldrich; host or cells: hen egg white; fibrillised in house (pH 3, 70 °C, stirred)
The data set can be described thus: Excitation and emission spectra of PEs with HEWL amyloids. It is filed as binding, hen. To be noted: PE 500 nM, HEWL amyloid 5 μM monomer basis. On the procedure: Excitation and emission spectra of PEs in phosphate buffer alone, with monomeric HEWL and with HEWL amyloids (8 h incubated) are shown in FIGS. 18A-H, and relevant photophysical properties are summarized in Table 1. FIGS. 18A-H illustrate excitation (A, B, C, D) and emission (right; E, F, G. H) spectra of PEs (A, E: PE1+; B, F: PE1−; C, G: PE2+; D, H: PE3+) in phosphate buffer (PB, pH 7.4, 10 mM) alone (long dashed line) with HEWL monomers (short dashed line) and with HEWL amyloids (solid line); PE concentration: 500 nM, protein concentration: 5 μM monomer basis/0.25 mg/mL; emission and excitation wavelengths, respectively, were chosen as shown in Table 1 for each sample. A 10:1 molar ratio of protein to PE was used for these experiments. Absorbance spectra were taken, but background light scattering from insoluble amyloid aggregates made them difficult to interpret, so “fluorescence detected absorbance” in the form of excitation spectra was used instead. Normalized excitation and emission spectra, in which peak shifts and lineshape changes of spectra were somewhat easier to visualize, were used. […] PE1+ (FIG. 18E) had no change in wavelength or lineshape of emission spectrum, just a large increase in intensity when mixed with amyloids. The excitation spectra (FIGS. 18A, B, C, D) show a notable bathochromic shift for each PE in solution mixed with amyloid, of 23, 27, 35 and 29 nm for PE1+, PE2+, PE3+ and PE1−, respectively, observing only the low-energy band. The high-energy band, less relevant for imaging purposes, was also bathochromically shifted. […] PE1− had similar excitation spectrum (FIG. 18B) with monomer and amyloid, except for a large intensity difference.
Lyophilized HEWL was dissolved at 10 mg/mL in 10 mM pH 3 sodium citrate buffer with 0.1 M NaCl. The solution was incubated in a 70C oil bath and magnetically stirred at 250 rpm for 12 h, and aliquots were withdrawn at half-hour intervals. […] Half of each aliquot was immediately diluted into pH 7.4 phosphate buffer to prevent further influence of acidic conditions and stored at 4C.
(§1) For studies of fluorescence enhancement vs. protein incubation time, dyes were mixed with protein sample in phosphate buffer (10 mM, pH 7.4) at equal monomer concentration of 10 μM in the wells of a standard 96-well plate. Emission spectra were obtained using top read with a SpectraMax M2e plate-reading spectrophotometer (Molecular Devices, Sunnyvale, CA). Experiments were performed in duplicate and errors are reported as standard deviation. For analysis of bound PE excitation and emission spectra and protein-PE energy transfer, PEs (500 nM) were mixed with protein sample (5 μM, monomer basis) in phosphate buffer and the solution transferred to a quartz, fluorometry cuvette. Spectra were obtained on a PTI QuantaMaster 40 steady state spectrofluorometer (HORIBA Scientific, Edison, NJ).

A further data set deals with T2, HEWL amyloid (Gallus gallus, UniProt P00698).
T2 construct: Lyophilized HEWL was dissolved at 10 mg/mL in 10 mM pH 3 sodium citrate buffer with 0.1 M NaCl; purchased Sigma-Aldrich; host or cells: hen egg white; fibrillised in house (pH 3, 70 °C, stirred)
Nature of the data set: Binding saturation assay of PEs to HEWL amyloid (Hill fit). The settings on record: for Hill coeffi.: PE binding to HEWL amyloid. More on the design: species or system hen. The method, then: Next, binding saturation assays were conducted to quantify the affinity of PE-amyloid binding; data and fitted curves were produced and the fitted parameters are summarized in the last two columns of Table 1. Since the linear fibril binding sites could fit many PEs, fits to binding curves were performed to the Hill equation to capture possible binding cooperativity:
[formula] where x is PE concentration (with protein concentration fixed), y is PE fluorescence intensity. […] Fits to the data for the three cationic PEs produced Fmax values close to the observed saturation value, and the other two parameters are reported as calculated. […] Furthermore, the cooperativity of PE binding increased from almost no cooperativity for PE1+, to some positive cooperativity for PE2+, to still more positive cooperativity for PE3+. The quantitative physical meaning of the Hill parameter is not quite clear except in special cases, but in a general way it is possible to conclude that for the cationic PEs, the shortest PE has non-cooperative binding to HEWL amyloid (Michaelis-Menten binding), and the two longer PEs have increasingly positively cooperative binding. […] The effect of PE1− non-specific binding to HEWL monomers precluded accurate determination of a binding constant for PE1−/amyloid interactions such that a quantitative comparison of binding between the cationic and anionic compounds could not be made.
For determination of binding constant of PEs to amyloid aggregates, PEs were mixed with HEWL amyloid in phosphate buffer at a final concentration of 100 nM-5 μM for PEs and 5 μM (monomer basis) for protein. The solutions were then transferred to a quartz fluorometry cuvette and emission measured at the pertinent wavelength. Experiments were performed in duplicate and errors reported as standard deviation. Hill function fits to PE binding curves were calculated in OriginPro 9.

In data set [3] the target is T1, HEWL amyloids. The data set can be described thus: HEWL to PE Förster resonance energy transfer. It is filed as binding, hen. The settings on record: excitation 280 nm.
From the text: The results are summarized as FRET efficiencies in FIG. 20, illustrating HEWL ? PE FRET efficiencies calculated from spectral data by the equation E=FA/(FD+FA) where FD is the integrated area under the donor emission peak, and FA is the integrated area under the acceptor emission peak. This simple expression is valid for this case since the PEs are nonfluorescent when excited at the donor excitation wavelength, eliminating crosstalk. Thus, FA is the total number of energy transfer events, and (FA+FD) is the total number of excitation events. Theoretically, the efficiencies should be convertible into distances by
as §1, with “Spectra were obtained on a PTI QuantaMaster 40 steady state spectrofluorometer (HORIBA Scientific, Edison, NJ).” left out

For data set [4] the following is noted: in water; cited from earlier work.

Read-outs that look alike come from different tables or passages of the source.

T2 sequence (P00698 19-147): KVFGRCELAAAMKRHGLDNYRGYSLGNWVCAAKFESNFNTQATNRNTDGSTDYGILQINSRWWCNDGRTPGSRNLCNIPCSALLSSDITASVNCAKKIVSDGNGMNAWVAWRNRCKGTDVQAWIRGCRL
T1 sequence (P00698 19-147): as above

For `CCOC(=O)c1ccc(C#Cc2cc(OCC[N+](C)(C)C)c(C#Cc3ccc(C#Cc4cc(OCC[N+](C)(C)C)c(C#Cc5ccc(C(=O)OCC)cc5)cc4OCC[N+](C)(C)C)cc3)cc2OCC[N+](C)(C)C)cc1` [PE2+], the “centre of structured emission upon aggregation with substrate” value in data set [1] (+2C with DLPG, −1C with LaCh) came out at 450 nm. Also, the “fluorescence quantum yield of aggregate with DLPG” value in data set [1] ([…] PE with 16 uM DLPG) is 0.63. Also, the “fluorescence enhancement on aggregation with DLPG” value in data set [1] (at 440 nm) stood at 39 times. Also, the “fluorescence quantum yield, PE alone” value in data set [1] (in water, corrected value of this study) is on record as ≤ 0.016. In addition, on HEWL amyloids [2], the “bathochromic shift of excitation spectrum, low-energy band, with amyloid” value is listed as 27 nm; the “blueshifting of the fluorescence maximum with amyloid” value is given as ~10 nm; the “λem (PB w/ HEWL)” value came out at 445 nm; the “λex (PB w/HEWL), high-energy band” value came out at 337 nm. For the same molecule, the “λex (PB w/HEWL), low-energy band” value at HEWL amyloids [2] was 426 nm. On HEWL amyloid, this molecule came in with a Kd of 1.15 µM and a Hill coeffi. of 1.15. For the same molecule, the “HEWL to PE FRET efficiency, relative” value at HEWL amyloids [3] is recorded as “highest efficiency”. The “fluorescence quantum yield, previously reported value” in data set [4] was 0.039.
As for `CCOC(=O)c1ccc(C#Cc2cc(OCC[N+](C)(C)C)c(C#Cc3ccc(C#Cc4cc(OCC[N+](C)(C)C)c(C#Cc5ccc(C#Cc6cc(OCC[N+](C)(C)C)c(C#Cc7ccc(C(=O)OCC)cc7)cc6OCC[N+](C)(C)C)cc5)cc4OCC[N+](C)(C)C)cc3)cc2OCC[N+](C)(C)C)cc1` [PE3+], on HEWL amyloids [2], the “bathochromic shift of excitation spectrum, low-energy band, with amyloid” value amounted to 35 nm; the “blueshifting of the fluorescence maximum with amyloid” value is listed as ~10 nm; the “λem (PB w/ HEWL)” value was 453 nm; the “λex (PB w/HEWL), high-energy band” value was 335 nm. For the same molecule, the “λex (PB w/HEWL), low-energy band” value at HEWL amyloids [2] was 434 nm. At HEWL amyloid (HEWL amyloid, Hill fit, read-out: calculated dissociation constant), the Kd is 0.858 µM. The molecule further showed a Hill coeffi. at HEWL amyloid of 1.89.
